In paper PMC10245560 (bioRxiv, 2023):

How the values were obtained:
B. subtilis = settings: ref Fage et al., 2020; cited from earlier work
B. subtilis 168 = assay: Bacterial cell wall integrity; assay type: cell-based; settings: phase-contrast microscopy
[1] = HS-AFM of fibrils on supported lipid bilayers; assay type: physicochemical; settings: supported lipid bilayer with lipid II, errors are standard deviation, SD

Molecule | activity against B. subtilis (B. subtilis) | cell-shape deformations / blebbing phenotype (B. subtilis 168) | height of fibrils above the membrane surface [1]
C=C(CC/C=C\C=C\C[C@H](C)CC(=O)C[C@@H](O)CNC(=O)[C@H](C)[C@@H](C)OC(N)=O)C[C@@H](C)C/C(C)=C/C(=O)O [kalimantacin] | not active | – | –
CN[C@H](CC(C)C)C(=O)N[C@H]1C(=O)N[C@@H](CC(N)=O)C(=O)N[C@H]2C(=O)N[C@H]3C(=O)N[C@H](C(=O)N[C@H](C(=O)O)c4cc(O)cc(O)c4-c4cc3ccc4O)[C@H](O)c3ccc(c(Cl)c3)Oc3cc2cc(c3O[C@@H]2O[C@H](CO)[C@@H](O)[C@H](O)[C@H]2O[C@H]2C[C@](C)(N)[C@H](O)[C@H](C)O2)Oc2ccc(cc2Cl)[C@H]1O [vancomycin] | – | similarly observed | –
hypeptin | – | similarly observed | –
teixobactin | – | similarly observed | 0.8 ± 0.1 nm
